Values quoted from earlier work in patent US20150182479A1, “Method of delivering agmatine for medical treatment” (TOPAZ VENTURES, INC., priority 2013, published 2015).

Columns and labels:
mouse = conditions: FST; for effect on antidepressant like effect of fluoxetine or paroxetine: agonists ip, agmatine-raising drugs icv; for effect of prior administration on antidepressant like effect of paroxetine and fluoxetine: paroxetine 10 mg/kg ip, fluoxetine 20 mg/kg ip
mice = conditions: for effect on morphine analgesia: agmatine 10 mg/kg i.p. 30 min before morphine s.c.; for effect on oxycodone analgesia: agmatine 10 mg/kg i.p. 30 min before oxycodone s.c.
thermal nociception = conditions: for effect of antagonist on response-latency enhancement by WIN 55212-2: WIN 55212-2 2 mg/kg, SR 141716A 5 mg/kg i.p., idazoxan 2 and 5 mg/kg, yohimbine 5 mg/kg

Compound: c1ccc2oc(C3=NCCN3)cc2c1 [2-(2-benzofuranyl)-2-imidazoline]
- effect on antidepressant like effect of fluoxetine or paroxetine (mouse): potentiated

Compound: Cc1noc(NS(=O)(=O)c2cccc3c(N(C)C)cccc23)c1C [BMS 182874]
- tail-flick latency, drug alone (mice; 360-min observation period): did not produce any change
- effect of pretreatment on analgesic effect produced by agmatine alone (mice; tail-flick, mice): did not increase
- effect on agmatine-induced potentiation of morphine and oxycodone analgesia (mice; tail-flick, mice): not altered
- effect on morphine analgesia (mice; tail-flick, mice): potentiates
- effect on oxycodone analgesia (mice; tail-flick, mice): potentiates

Compound: N=C(N)NCCC[C@@H](N)C(=O)O [D-arginine]
- effect of prior administration on antidepressant like effect of paroxetine and fluoxetine (mouse): blocked

Compound: N=C(N)NCCC[C@H](N)C(=O)O [L-arginine]
- effect on antidepressant like effect of fluoxetine or paroxetine (mouse): potentiated

Compound: Cc1c(C(=O)NN2CCCCC2)nn(-c2ccc(Cl)cc2Cl)c1-c1ccc(Cl)cc1 [SR 141716A]
- effect of antagonist on response-latency enhancement by WIN 55212-2 (thermal nociception): blocked

Compound: N=C(N)NN [aminoguanidine]
- effect on antidepressant like effect of fluoxetine or paroxetine (mouse): potentiated

Compound: NC(N)=NCCCCN=C(N)N [arcaine]
- effect on antidepressant like effect of fluoxetine or paroxetine (mouse): potentiated

Compound: Clc1cccc(Cl)c1N=C1NCCN1 [clonidine]
- effect on morphine analgesia (mice; tail-flick, mice): potentiate
- effect on oxycodone analgesia (mice; tail-flick, mice): potentiate
- effect on antidepressant like effect of fluoxetine or paroxetine (mouse): potentiated

Compound: CCC1(C2=NCCN2)Cc2ccccc2O1 (stereo not drawn) [efaroxan]
- effect of prior administration on antidepressant like effect of paroxetine and fluoxetine (mouse): blocked

Compound: c1ccc2c(c1)OCC(C1=NCCN1)O2 (stereo not drawn) [idazoxan]
- effect of antagonist on response-latency enhancement by combination of WIN 55212-2 and agmatine (thermal nociception; WIN 55212-2 2 mg/kg and agmatine, yohimbine 5 mg/kg i.p.): blocked
- effect of antagonist on response-latency enhancement by WIN 55212-2 (thermal nociception): attenuated
- effect on BMS 182874-induced potentiation of oxycodone analgesia (mice; tail-flick, mice): blocked
- effect on agmatine-induced potentiation of morphine and oxycodone analgesia (mice; tail-flick, mice): blocked
- effect of prior administration on antidepressant like effect of paroxetine and fluoxetine (mouse): blocked

Compound: COc1nc(C)nc(Cl)c1N=C1NCCN1 [moxonidine]
- effect on antidepressant like effect of fluoxetine or paroxetine (mouse): potentiated

Compound: COC(=O)[C@@H]1[C@H]2C[C@H]3c4[nH]c5ccccc5c4CCN3C[C@@H]2CC[C@@H]1O [yohimbine]
- effect of antagonist on response-latency enhancement by WIN 55212-2 (thermal nociception): not affected
- effect on BMS 182874-induced potentiation of morphine analgesia (mice; tail-flick, mice): not affected
- effect on BMS 182874-induced potentiation of oxycodone analgesia (mice; tail-flick, mice): not affected
- effect on agmatine-induced potentiation of morphine and oxycodone analgesia (mice; tail-flick, mice): blocked

Compound: (−)-cis 3-(2-hydroxy-4-(1,1-dimethylheptyl)phenyl)-trans-4-(3-hydroxypropyl) cyclohexanol [CP55,940]
- hot-plate response latency, drug given alone (thermal nociception; i.p., WIN 55212-2 or CP55,940 1, 2 or 3 mg/kg, agmatine 50 or 100 mg/kg): increased

Compound: difluoromethyl ornithine
- effect on antidepressant like effect of fluoxetine or paroxetine (mouse): potentiated
